A short description of series [1]: Solubility in 100 mM glycylglycine buffer at pH 3.0 incubated for 18 hrs by UPLC analysis. Format: physicochemical.
Series [2] in a line: Solubility in 100 mM bistrispropane buffer at pH 7.5 incubated for 18 hrs by UPLC analysis. Format: physicochemical.
In series [3] the target is T1, Amylin receptor AMY3; CALCR/RAMP3 (Homo sapiens, UniProt O60896+P30988).
T1 sequence (P30988 whole entry): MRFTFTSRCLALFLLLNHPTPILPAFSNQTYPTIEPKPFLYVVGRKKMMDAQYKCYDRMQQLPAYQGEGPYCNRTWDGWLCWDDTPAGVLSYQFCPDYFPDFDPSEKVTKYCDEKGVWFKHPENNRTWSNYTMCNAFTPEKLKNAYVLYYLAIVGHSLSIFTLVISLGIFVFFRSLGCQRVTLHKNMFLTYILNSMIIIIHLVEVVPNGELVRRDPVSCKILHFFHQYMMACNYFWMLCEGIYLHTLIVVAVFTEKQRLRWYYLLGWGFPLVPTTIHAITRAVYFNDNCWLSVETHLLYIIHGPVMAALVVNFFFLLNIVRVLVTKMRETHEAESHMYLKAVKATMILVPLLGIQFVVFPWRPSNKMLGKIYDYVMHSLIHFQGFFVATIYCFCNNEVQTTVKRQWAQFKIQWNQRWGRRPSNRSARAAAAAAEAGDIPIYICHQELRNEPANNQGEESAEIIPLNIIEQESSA
T1 sequence (O60896 whole entry): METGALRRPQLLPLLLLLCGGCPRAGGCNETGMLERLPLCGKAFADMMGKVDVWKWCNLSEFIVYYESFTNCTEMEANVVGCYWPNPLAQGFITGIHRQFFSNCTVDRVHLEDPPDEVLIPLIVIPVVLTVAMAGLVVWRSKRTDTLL
Briefly: Agonist activity at human amylin receptor expressed in BHK570 cells co-expressing RAMP3 assessed as increase in intracellular cAMP concentration incubated for 3 hrs in absence of albumin by CRE luciferase reporter gene assay. Format: functional, cell-based.

Series [4] addresses T1, Amylin receptor AMY3; CALCR/RAMP3. Put plainly: Agonist activity at human amylin receptor expressed in BHK570 cells co-expressing RAMP3 assessed as increase in intracellular cAMP concentration incubated for 3 hrs in presence of 10% FBS by CRE luciferase reporter gene assay. Format: functional, cell-based. A general note: Reporter assays use an easily measured gene product as a stand-in for the process of interest.

Series [5] concerns the target T2, Calcitonin receptor (Homo sapiens, UniProt P30988).
T2 sequence (P30988 whole entry): T1 sequence (P30988 whole entry)
Put plainly: Agonist activity at human calcitonin receptor expressed in BHK570 cells assessed as increase in intracellular cAMP concentration incubated for 3 hrs in presence of 10% FBS by CRE luciferase reporter gene assay. The class given is functional, cell-based.

Series [6] can be described thus: Solubility in 100 mM bistrispropane buffer at pH 6.0 incubated for 18 hrs by UPLC analysis. Format: physicochemical.
Series [7] can be described thus: Solubility in 100 mM bistrispropane buffer at pH 6.5 incubated for 18 hrs by UPLC analysis. The class given is physicochemical.
The nature of series [8]: Solubility in 100 mM glycylglycine buffer at pH 4.0 incubated for 18 hrs by UPLC analysis. The class given is physicochemical.
Series [9] in a line: Solubility in 100 mM bistrispropane buffer at pH 7.0 incubated for 18 hrs by UPLC analysis. The class given is physicochemical.
Series [10] is described as follows: Solubility in 100 mM bistrispropane buffer at pH 8.0 incubated for 18 hrs by UPLC analysis. The class given is physicochemical.
Series [11] concerns the target T2, Calcitonin receptor. Put plainly: Agonist activity at human calcitonin receptor expressed in BHK570 cells assessed as increase in intracellular cAMP concentration incubated for 3 hrs in absence of albumin by CRE luciferase reporter gene assay. The class given is functional, cell-based.
Series [12] deals with T1, Amylin receptor AMY3; CALCR/RAMP3. Put plainly: Displacement of [125I]-labeled rat amylin from human amylin receptor expressed in BHK tkts13 whole cells co-expressing RAMP3 incubated for 60 mins by scintillation proximity assay. The class given is cell-based.
Series [13] in a line: Solubility in 100 mM glycylglycine buffer at pH 5.0 incubated for 18 hrs by UPLC analysis. Format: physicochemical.

Numbered stars: 1 amine (or outer) side, 2 acyl side, 3 side chain; on linkers, the order of the positions; unused ones are H or OH. Peptide text beside a SMILES is read from it. * marks the point of attachment. C20 diacid = O=C(O)CCCCCCCCCCCCCCCCCCC(=O)*; γGlu = O=C(O)[C@H](CCC(=O)[*:2])N[*:1] A value given as a limit tells only on which side of the number the result lay.

By solubility is commonly meant the dissolved amount per volume that the medium holds. As usually defined, the EC50 is the concentration that produces a half-maximal response. Broadly, the IC50 is the midpoint of a concentration-inhibition curve. On to `CC(C)C[C@H](NC(=O)CC[C@H](NC(=O)CCCCCCCCCCCCCCCCCCC(=O)O)C(=O)O)C(=O)N[C@@H](CO)C(=O)NCC(=O)N[C@@H](CC(C)C)C(=O)N[C@@H](CO)C(=O)N[C@H](C(=O)N[C@@H](C)C(=O)N[C@H](C(=O)N[C@@H](CC(C)C)C(=O)NCC(=O)N[C@@H](CCCNC(=N)N)C(=O)N[C@@H](CC(C)C)C(=O)N[C@@H](CO)C(=O)N[C@@H](C)C(=O)N[C@@H](CCC(=O)O)C(=O)N[C@@H](CC(C)C)C(=O)N[C@@H](Cc1cnc[nH]1)C(=O)N[C@@H](CCC(=O)O)C(=O)N[C@@H](CC(C)C)C(=O)N[C@@H](CO)C(=O)N[C@H](C(=O)N[C@@H](Cc1ccc(O)cc1)C(=O)N1CCC[C@H]1C(=O)N[C@@H](CCCNC(=N)N)C(=O)N[C@H](C(=O)N[C@@H](CCC(=O)O)C(=O)N[C@H](C(=O)NCC(=O)N[C@@H](CO)C(=O)NCC(=O)N[C@H](C(=O)N[C@@H](Cc1ccc(O)cc1)C(N)=O)[C@@H](C)O)[C@@H](C)O)[C@@H](C)O)[C@@H](C)O)C(C)C)[C@@H](C)O` ({C20 diacid-γGlu}-LSGLSTAVLGRLSAELHELSTYPRTETGSGTY-NH2), for which the solubility at 18 h in series [1], in series [2], in series [6], in [7], in series [8] and in [9] was at least 200 µM each time. The same molecule returned a solubility at 18 h in series [10] of at least 200 µM. Also, the EC50 is 0.024 nM in series [3], 0.064 nM in [4], 0.034 nM at Calcitonin receptor [5] and 0.028 nM at Calcitonin receptor [11]. In series [12], the half-inhibitory concentration (IC50) is 11.8 nM.
Take `CC(C)C[C@H](NC(=O)[C@H](C)NC(=O)[C@H](C)NC(=O)[C@@H](NC(=O)[C@H](CO)NC(=O)[C@H](CC(C)C)NC(=O)[C@H](CCC(=O)O)NC(=O)[C@H](CO)NC(=O)[C@H](C)NC(=O)[C@H](CCC(=O)O)NC(=O)CC[C@H](NC(=O)CCCCCCCCCCCCCCCCCCC(=O)O)C(=O)O)[C@@H](C)O)C(=O)NCC(=O)N[C@@H](CCCNC(=N)N)C(=O)N[C@@H](CC(C)C)C(=O)N[C@@H](CO)C(=O)N[C@@H](C)C(=O)N[C@@H](CCC(=O)O)C(=O)N[C@@H](CC(C)C)C(=O)N[C@@H](Cc1cnc[nH]1)C(=O)N[C@@H](CCC(=O)O)C(=O)N[C@@H](CC(C)C)C(=O)N[C@@H](C)C(=O)N[C@H](C(=O)N[C@@H](Cc1ccc(O)cc1)C(=O)N1CCC[C@H]1C(=O)N[C@@H](CCCNC(=N)N)C(=O)N[C@H](C(=O)N[C@@H](CCC(=O)O)C(=O)N[C@H](C(=O)NCC(=O)N[C@@H](CO)C(=O)NCC(=O)N[C@@H](CO)C(=O)N1CCC[C@H]1C(N)=O)[C@@H](C)O)[C@@H](C)O)[C@@H](C)O` ({C20 diacid-γGlu}-EASELSTAALGRLSAELHELATYPRTETGSGSP-NH2): the solubility at 18 h in series [1], in [2], in series [13], in [6], in series [7] and in series [8] was at least 200 µM throughout. The solubility at 18 h in series [9] and in series [10] was at least 200 µM in each case. In addition, the EC50 was 0.012 nM in series [3], 0.143 nM in series [4], 0.074 nM at Calcitonin receptor [5] and 0.014 nM at Calcitonin receptor [11]. The half-maximal inhibitory concentration (IC50) in [12] is 1.59 nM.
Take `CC(C)C[C@H](NC(=O)CNC(=O)[C@H](CO)NC(=O)[C@H](C)NC(=O)CC[C@H](NC(=O)CCCCCCCCCCCCCCCCCCC(=O)O)C(=O)O)C(=O)N[C@@H](CO)C(=O)N[C@H](C(=O)N[C@@H](C)C(=O)N[C@H](C(=O)N[C@@H](CC(C)C)C(=O)NCC(=O)N[C@@H](CCCNC(=N)N)C(=O)N[C@@H](CC(C)C)C(=O)N[C@@H](CO)C(=O)N[C@@H](CCC(N)=O)C(=O)N[C@@H](CCC(=O)O)C(=O)N[C@@H](CC(C)C)C(=O)N[C@@H](Cc1cnc[nH]1)C(=O)N[C@@H](CCC(=O)O)C(=O)N[C@@H](CC(C)C)C(=O)N[C@@H](CCC(N)=O)C(=O)N[C@H](C(=O)N[C@@H](Cc1ccc(O)cc1)C(=O)N1CCC[C@H]1C(=O)N[C@@H](CCCNC(=N)N)C(=O)N[C@H](C(=O)N[C@@H](CCC(=O)O)C(=O)N[C@H](C(=O)NCC(=O)N[C@@H](CO)C(=O)N[C@@H](C)C(=O)N[C@H](C(=O)N[C@@H](Cc1ccc(O)cc1)C(N)=O)[C@@H](C)O)[C@@H](C)O)[C@@H](C)O)[C@@H](C)O)C(C)C)[C@@H](C)O` ({C20 diacid-γGlu}-ASGLSTAVLGRLSQELHELQTYPRTETGSATY-NH2): the solubility at 18 h in series [1], in [2], in series [6], in [7], in series [8] and in [9] was at least 200 µM in each case. This molecule also had a solubility at 18 h in series [10] of at least 200 µM. Further, the results for the EC50 (in series [4]; at Calcitonin receptor [5]; on Calcitonin receptor [11]) were 0.077 nM, 0.037 nM and 0.052 nM, respectively. Also, the IC50 in [12] was 0.244 nM.
Turning to `CC(C)C[C@H](NC(=O)CNC(=O)[C@H](CO)NC(=O)[C@H](C)NC(=O)CC[C@H](NC(=O)CCCCCCCCCCCCCCCCCCC(=O)O)C(=O)O)C(=O)N[C@@H](CO)C(=O)N[C@H](C(=O)N[C@@H](C)C(=O)N[C@H](C(=O)N[C@@H](CC(C)C)C(=O)NCC(=O)N[C@@H](CCCNC(=N)N)C(=O)N[C@@H](CC(C)C)C(=O)N[C@@H](CO)C(=O)N[C@@H](CCC(N)=O)C(=O)N[C@@H](CCC(=O)O)C(=O)N[C@@H](CC(C)C)C(=O)N[C@@H](Cc1cnc[nH]1)C(=O)N[C@@H](CCC(=O)O)C(=O)N[C@@H](CC(C)C)C(=O)N[C@@H](CCC(N)=O)C(=O)N[C@H](C(=O)N[C@@H](Cc1ccc(O)cc1)C(=O)N1CCC[C@H]1C(=O)N[C@@H](CCCNC(=N)N)C(=O)N[C@H](C(=O)N[C@@H](CCC(=O)O)C(=O)N[C@H](C(=O)NCC(=O)N[C@@H](CO)C(=O)NCC(=O)N[C@H](C(=O)N[C@@H](Cc1ccc(O)cc1)C(N)=O)[C@@H](C)O)[C@@H](C)O)[C@@H](C)O)[C@@H](C)O)[C@@H](C)O)[C@@H](C)O` ({C20 diacid-γGlu}-ASGLSTATLGRLSQELHELQTYPRTETGSGTY-NH2), the solubility at 18 h in series [1], in series [2], in series [6], in [7], in series [8] and in series [9] was at least 200 µM throughout. Besides, in [10], the solubility at 18 h is at least 200 µM. Moreover, the half-maximal effective concentration (EC50) in [3] is 0.04 nM; in [4], 0.122 nM; on Calcitonin receptor [5], 0.092 nM; at Calcitonin receptor [11], 0.034 nM. Further, the IC50 in [12] was 0.079 nM.

These data come from ChEMBL document CHEMBL4420076, “Amylin and calcitonin receptor agonist” (2017).
